Paper PMC11111408, “Concurrent inhibition of oncogenic and wild-type RAS-GTP for cancer therapy” (Nature, 2024)
Several values for one entry are separate records, joined by “and”; a condition that tells them apart may be missing. Equal values may be shown once.

How the values were obtained:
NRAS^Q61L = NRAS^Q61L (Homo sapiens, UniProt P01111+P62937, Q61L); experiment: RAS binding affinity of compound-bound CYPA (Kd2), SPR; details: steady state SPR, (95% CI)
Capan-1 cells = experiment: Cellular ERK phosphorylation (pERK); format: cell-based; details: Homo sapiens; Capan-1 (KRAS^G12V PDAC); (95% CI)
RAS = experiment: Binding of the CYPA–RMC-7977 binary complex to RAS (Kd2), SPR; design: species or system human; details: all three wild-type RAS proteins
From the text: The basic nitrogen of the piperazine forms a cation–π interaction with W121. e, Oriented by the hydrogen bond to CYPA W121, RAS Y64 forms π-stacking interactions with the pyridine and indole groups. […] Data are mean ± s.d. of independent experiments (KRAS variants (green): wild-type (WT) KRAS, n = 4; KRAS(G12C), KRAS(G12D), KRAS(G12R), KRAS(G12V), KRAS(G13D), n = 6; NRAS variants (blue): NRAS(WT), NRAS(Q61L), n = 4; NRAS(Q61K), NRAS(Q61R), n = 6; HRAS variants (purple): HRAS(WT), n = 5; HRAS(G13R), n = 6; slope = 0.99, 95% confidence interval: 0.8–1.2, R^2 = 0.99; values also shown in Extended Data Tables 1–3).
The binding affinity of compound-bound CYPA for the mutant oncogenic RAS proteins (Kd2) mentioned was assessed by SPR on a Biacore 8 K instrument. […] The SPR sensorgrams were fit using either a steady state affinity model or a 1:1 binding (kinetic) model to assess the dissociation constant (Kd) for RAS binding.

KRAS–SOS1 = target: T1, KRAS–SOS1 (Homo sapiens, UniProt P01116+); experiment: Cellular nano-BRET, catalytic domain of SOS1 binding to KRAS; format: cell-based; details: in the presence of CYPA, single replicates;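 further: U2OS cells expressing partner proteins fused at the N-terminus to nanoluciferase or HaloTag, nano-BRET signal read after inhibitor exposure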
T1 construct: expressed in transfected cells; host or cells: U2OS

[1] = system: DUSP6 mRNA in NCI-H441 xenograft tumours; experiment: In vivo pharmacodynamic analysis by DUSP6 qPCR in NCI-H441 CDX tumours; design: species or system mouse; details: for % inhibition of DUSP6 vs control: single dose, tumor, individual animals
Protocol: RNA extraction and analysis of DUSP6 levels by in tumour tissue were performed as previously described.

In the case of CCn1c(-c2cc(N3CCN(C4CC4)CC3)cnc2[C@H](C)OC)c2c3cc(ccc31)-c1csc(n1)C[C@H](NC(=O)[C@H]1[C@@H]3COC[C@@H]31)C(=O)N1CCC[C@H](N1)C(=O)OCC(C)(C)C2 [RMC-7977], the Kd (NRAS^Q61L) is reported as 240 nM, the EC50 (Capan-1 cells) is reported as 0.421 nM and the Kd (RAS) is reported as ~100 nM. The “Cellular nano-BRET of SOS1 (catalytic domain) binding to KRAS WT” value (from here on “Cellular nano-BRET of SOS1”) (KRAS–SOS1; RMC-7977 0.152 nM) was 8.563 and 8.127 and 7.755 and 7.611 and 8.1239 and 8.058, the “Cellular nano-BRET of SOS1” value (KRAS–SOS1; RMC-7977 0.457 nM) was 8.149 and 7.736 and 7.651 and 7.24 and 7.671 and 7.508 and the “Cellular nano-BRET of SOS1” value (KRAS–SOS1; RMC-7977 1.372 nM) was 7.907 and 7.747 and 7.493 and 7.384 and 7.007 and 7.17. The “Cellular nano-BRET of SOS1” value (KRAS–SOS1; RMC-7977 4.115 nM) was 6.922 and 7.229 and 6.471 and 6.374 and 6.52 and 6.661, the “Cellular nano-BRET of SOS1” value (KRAS–SOS1; RMC-7977 12.346 nM) was 6.508 and 6.709 and 6.01 and 5.988 and 6.2252 and 6.045 and the “Cellular nano-BRET of SOS1” value (KRAS–SOS1; RMC-7977 37.037 nM) was 7.064 and 6.964 and 6.2728 and 5.9257 and 6.205 and 6.027. For the same compound, the “Cellular nano-BRET of SOS1” value (KRAS–SOS1; RMC-7977 111.111 nM) was 6.712 and 6.771 and 6.171 and 6.63 and 5.929 and 6.341, the “Cellular nano-BRET of SOS1” value (KRAS–SOS1; RMC-7977 333.333 nM) was 6.383 and 7.187 and 5.742 and 6.572 and 6.198 and 6.656 and the “Cellular nano-BRET of SOS1” value (KRAS–SOS1; RMC-7977 1000.000 nM) was 6.907 and 6.939 and 5.652 and 5.948 and 6.113 and 6.236. For the same compound, the EC50 ([1]; Mus musculus, NCI-H441, po, read-out: EC50, total tumour concentration versus DUSP6 inhibition) was 130 nM, the EC90 ([1]; Mus musculus, NCI-H441 CDX, single oral administration, read-out: EC90, tumour concentration versus DUSP6 inhibition) was 1450 nM and the “RMC-7977 10 mg/kg po dusp6” value ([1]; NCI-H441 CDX tumour DUSP6 mRNA, single oral 10 mg/kg, 1 h, individual replicates, 10 mg/kg) was 34.819 and 101.252 and 98.4831. The “RMC-7977 25 mg/kg po dusp6” value ([1]; NCI-H441 CDX tumour DUSP6 mRNA, single oral 25 mg/kg, 1 h, individual replicates, 25 mg/kg) was 26.2056 and 15.6903 and 16.7583, the “suppression of tumour DUSP6 levels” value ([1]; NCI-H441 CDX, single oral dose of 10 mg kg^−1, at 8 h) was 91% and the “% inhibition of DUSP6 vs control” value ([1]; 8h, 1 mg/kg) was 63.5% and 36.8% and 52.6%. The “% inhibition of DUSP6 vs control” value ([1]; 8h, 5 mg/kg) was 53.7% and 91.7% and 1.5%, the “% inhibition of DUSP6 vs control” value ([1]; 8h, 10 mg/kg) was 95.7% and 96.4% and 96.3% and 93.6937% and 85.7607% and 93.075% and the “% inhibition of DUSP6 vs control” value ([1]; 8h, 25 mg/kg) was 95.995% and 81.4698% and 87.9011%. The “% inhibition of DUSP6 vs control” value ([1]; 24h, 1 mg/kg) was 0% and 16.6%, the “% inhibition of DUSP6 vs control” value ([1]; 24h, 5 mg/kg) was 6.8% and 29.4% and 61.8% and the “% inhibition of DUSP6 vs control” value ([1]; 24h, 10 mg/kg) was 89.7% and 90.2% and 86.9% and 86.5288% and 67.1731% and 84.3639%. The “% inhibition of DUSP6 vs control” value ([1]; 24h, 25 mg/kg) was 94.1768% and 94.6786% and 96.3905%, the “% inhibition of DUSP6 vs control” value ([1]; 48h, 1 mg/kg) was 0% and 32.5% and the “% inhibition of DUSP6 vs control” value ([1]; 48h, 5 mg/kg) was 3.9% and 33.4% and 22.2%. The “% inhibition of DUSP6 vs control” value ([1]; 48h, 10 mg/kg) was 72.3% and 74.6% and 69.6% and 56.232% and 64.817% and 89.3572%, the “% inhibition of DUSP6 vs control” value ([1]; 48h, 25 mg/kg) was 81.914% and 86.388% and 94.0545% and the “% inhibition of DUSP6 vs control” value ([1]; 72h, 5 mg/kg) was 0% and 11.9%. For the same compound, the “% inhibition of DUSP6 vs control” value ([1]; 72h, 10 mg/kg) was 0.2% and 45.2% and 48.1% and 87.4744% and 67.1731%.
